What was measured:
Type in all cases: cell-based
[1] = test system: Escherichia coli; assay: Molecular phenotypic antimicrobial susceptibility test (extraction or DNA purification prior to PCR)
Method in brief: (§1)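 Patient specimens in boric acid were grown in culture medium, adjusted to 0.5 McFarland by optical density, then incubated 12-16 hours with antimicrobials in Mueller Hinton Broth at breakpoint concentrations. Growth was read by semi-quantitative PCR, alongside a no-antimicrobial well for pathogen load.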

[2] = test system: Escherichia coli; assay: Traditional culture-based antimicrobial susceptibility test
Method in brief: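 E. coli isolates underwent conventional growth, isolation and exposure to antimicrobials, giving a culture-based susceptibility call for each agent.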

[3] = test system: pathogens of clinical samples; assay: Molecular phenotypic antimicrobial susceptibility test of clinical samples, direct PCR without a separate DNA purification step (Table 6)
Method in brief: as §1

[4] = test system: pathogens of clinical samples; assay: Molecular phenotypic antimicrobial susceptibility test of clinical samples, extraction DNA purification step prior to PCR (Table 6)
Method in brief: as §1

[5] = E. coli, clinical sample of r10-r24
[6] = E. coli, clinical sample of r158-r172
[7] = K. aerogenes, clinical sample of r136-r150
[8] = K. pneumoniae, clinical sample of r121-r135
[9] = M. morganii, clinical sample of r55-r69
[10] = M. morganii, clinical sample of r70-r84
[11] = P. mirabilis, clinical sample of r25-r39
[12] = P. mirabilis, clinical sample of r40-r54

C[C@@H](O)[C@H]1C(=O)N2C(C(=O)O)=C(S[C@@H]3CN[C@H](C(=O)N(C)C)C3)[C@H](C)[C@H]12 [Meropenem]
Ct at Sensitive Breakpoint ([1]; E. coli isolate 1, Ct at control (average) 21.238): 33.626
Molecular Antimicrobial Susceptibility Result ([1]; E. coli isolate 1, at sensitive breakpoint): Sensitive (Antimicrobial wells with pathogen load detected below the control wells (typically >2 cycle thresholds later) may be reported as Sensitive)
Ct at Sensitive Breakpoint ([1]; E. coli isolate 2, Ct at control (average) 21.270): 29.525
Molecular Antimicrobial Susceptibility Result ([1]; E. coli isolate 2, at sensitive breakpoint): Sensitive (Antimicrobial wells with pathogen load detected below the control wells (typically >2 cycle thresholds later) may be reported as Sensitive)
Ct at Sensitive Breakpoint ([1]; E. coli isolate 3, Ct at control (average) 22.0995): 23.588
Molecular Antimicrobial Susceptibility Result ([1]; E. coli isolate 3, at sensitive breakpoint): Sensitive (Antimicrobial wells with pathogen load detected below the control wells (typically >2 cycle thresholds later) may be reported as Sensitive)
Traditional Culture Result ([2]; E. coli isolate 1 (Table 3)): Sensitive
Traditional Culture Result ([2]; E. coli isolate 2 (Table 3)): Sensitive
Traditional Culture Result ([2]; E. coli isolate 3 (Table 3)): Sensitive
Traditional Culture Result ([2]; E. coli isolate JJ1887): Sensitive
Molecular Antibiotic Susceptibility Result [3, 5]: Sensitive (Antimicrobial wells with pathogen load detected below the control wells (typically >2 cycle thresholds later) may be reported as Sensitive)
Ct ([3]; E. coli, clinical sample of r10-r24, Ct control avg 12.97): 24.598
Molecular Antibiotic Susceptibility Result [3, 6]: Sensitive (Antimicrobial wells with pathogen load detected below the control wells (typically >2 cycle thresholds later) may be reported as Sensitive)
Ct ([3]; E. coli, clinical sample of r158-r172, Ct control avg 12.894): 30.093
Molecular Antibiotic Susceptibility Result [3, 7]: Sensitive (Antimicrobial wells with pathogen load detected below the control wells (typically >2 cycle thresholds later) may be reported as Sensitive)
Ct ([3]; K. aerogenes, clinical sample of r136-r150, Ct control avg 13.854): 28.604
Molecular Antibiotic Susceptibility Result [3, 8]: Sensitive (Antimicrobial wells with pathogen load detected below the control wells (typically >2 cycle thresholds later) may be reported as Sensitive)
Ct ([3]; K. pneumoniae, clinical sample of r121-r135, Ct control avg […]): 26.606
Molecular Antibiotic Susceptibility Result [3, 9]: Sensitive (Antimicrobial wells with pathogen load detected below the control wells (typically >2 cycle thresholds later) may be reported as Sensitive)
Ct ([3]; M. morganii, clinical sample of r55-r69, Ct control avg 12.09): 30.024
Molecular Antibiotic Susceptibility Result [3, 10]: Sensitive (Antimicrobial wells with pathogen load detected below the control wells (typically >2 cycle thresholds later) may be reported as Sensitive)
Ct ([3]; M. morganii, clinical sample of r70-r84, Ct control avg 11.677): 29.381
Molecular Antibiotic Susceptibility Result [3, 11]: Sensitive (Antimicrobial wells with pathogen load detected below the control wells (typically >2 cycle thresholds later) may be reported as Sensitive)
Ct ([3]; P. mirabilis, clinical sample of r25-r39, Ct control avg 11.801): 32.513
Molecular Antibiotic Susceptibility Result [3, 12]: Sensitive (Antimicrobial wells with pathogen load detected below the control wells (typically >2 cycle thresholds later) may be reported as Sensitive)
Ct ([3]; P. mirabilis, clinical sample of r40-r54, Ct control avg 10.06): 31.805
Molecular Antibiotic Susceptibility Result [4, 5]: Sensitive (Antimicrobial wells with pathogen load detected below the control wells (typically >2 cycle thresholds later) may be reported as Sensitive)
Ct ([4]; E. coli, clinical sample of r10-r24, Ct Control Avg 18.112): 27.07
Molecular Antibiotic Susceptibility Result [4, 6]: Sensitive (Antimicrobial wells with pathogen load detected below the control wells (typically >2 cycle thresholds later) may be reported as Sensitive)
Ct ([4]; E. coli, clinical sample of r158-r172, Ct Control Avg 20.146): 30.723
Molecular Antibiotic Susceptibility Result [4, 7]: Sensitive (Antimicrobial wells with pathogen load detected below the control wells (typically >2 cycle thresholds later) may be reported as Sensitive)
Ct ([4]; K. aerogenes, clinical sample of r136-r150, Ct Control Avg 19.994): 33.144
Molecular Antibiotic Susceptibility Result [4, 8]: Sensitive (Antimicrobial wells with pathogen load detected below the control wells (typically >2 cycle thresholds later) may be reported as Sensitive)
Ct ([4]; K. pneumoniae, clinical sample of r121-r135, Ct Control Avg 24.272): 31.816
Molecular Antibiotic Susceptibility Result [4, 9]: Sensitive (Antimicrobial wells with pathogen load detected below the control wells (typically >2 cycle thresholds later) may be reported as Sensitive)
Ct ([4]; M. morganii, clinical sample of r55-r69, Ct Control Avg 28.86): 37.898
Molecular Antibiotic Susceptibility Result [4, 10]: Sensitive (Antimicrobial wells with pathogen load detected below the control wells (typically >2 cycle thresholds later) may be reported as Sensitive)
Ct ([4]; M. morganii, clinical sample of r70-r84, Ct Control Avg 27.053): 36.672
Molecular Antibiotic Susceptibility Result [4, 11]: Sensitive (Antimicrobial wells with pathogen load detected below the control wells (typically >2 cycle thresholds later) may be reported as Sensitive)
Ct ([4]; P. mirabilis, clinical sample of r25-r39, Ct Control Avg 26.064): 34.223
Molecular Antibiotic Susceptibility Result [4, 12]: Sensitive (Antimicrobial wells with pathogen load detected below the control wells (typically >2 cycle thresholds later) may be reported as Sensitive)
Ct ([4]; P. mirabilis, clinical sample of r40-r54, Ct Control Avg 26.987): 35.503

Reference: US20250290117A1, “MOLECULAR PHENOTYPIC ANTIMICROBIAL SUSCEPTIBILITY TESTING” (priority 2024, published 2025)
